From patent US9326506B2, “Preparation method, agricultural composition and applications of natural brassinolide analogs” (CHENGDU NEWSUN CROPSCIENCE CO., LTD, priority 2012, dated 2016)

Test system: rice
Experiment: Low temperature assay on rice seedlings
Type: in vivo
Description: According to a low temperature assay, we measured parameters including plant height, number of leaf, area of leaf, number of tiller, weight of root at low temperature to completely determine effects of the natural brassinolide analogues on the resistance to low temperature of a plant.
The natural brassinolide analogues, BR1, BR2, BR3, BR4, BR5 and BR6, used herein, were those prepared by the method of Example 1. Respectively the analogues were dissolved into 95% (V/V) ethanol solution, and then diluted with pure water to 1 mg/L, 0.1 mg/L, 0.01 mg/L, 0.001 mg/L and 0.0001 mg/L. In addition, pure water was used as a control.
After rice seeds were disinfected by using 5% sodium hypochlorite solution treatment, they were rinsed with distilled water until their pH>7, placed into a petri dish in a dark incubator, and cultured by using water at 30° C.±2° C. for 9 days. Then respectively the nine-day-old etiolated seedlings of rice were immersed in the above solutions containing different concentrations of the natural brassinolide analogues or pure water, and cultured at the temperature of 1° C., 2° C., 3° C., 4° C. and 5° C. for 24 hr. The parameters including plant height, area of leaf and weight of root after 3, 6, 9 and 12 days and number of leaf and number of tiller after 12 days were measured.

SMILES: C=C(C(C)C)[C@@H](O)[C@H](O)[C@@H](C)[C@H]1CCC2C3COC(=O)C4C[C@H](O)[C@H](O)C[C@]4(C)C3CC[C@@]21C (stereo partly shown) [BR3]
- Height (0.01 mg/l, 3 °C, 9 days): 7.5 cm
- Weight of root (0.01 mg/l, 3 °C, 9 days): 2.9 g
- Area of leaf (0.01 mg/l, 3 °C, 12 days): 13.2 cm^2
- Height (0.01 mg/l, 3 °C, 12 days): 7.8 cm
- Number of leaf (0.01 mg/l, 3 °C, 12 days): 3
- Number of tiller (0.01 mg/l, 3 °C, 12 days): 2
- Weight of root (0.01 mg/l, 3 °C, 12 days): 2.9 g
- Area of leaf (0.01 mg/l, 4 °C, 3 days): 10.8 cm^2
- Height (0.01 mg/l, 4 °C, 3 days): 7.1 cm
- Weight of root (0.01 mg/l, 4 °C, 3 days): 2.5 g
- Area of leaf (0.01 mg/l, 4 °C, 6 days): 12.4 cm^2
- Height (0.01 mg/l, 4 °C, 6 days): 7.4 cm
- Weight of root (0.01 mg/l, 4 °C, 6 days): 2.6 g
- Area of leaf (0.01 mg/l, 4 °C, 9 days): 13 cm^2
- Height (0.01 mg/l, 4 °C, 9 days): 7.7 cm
- Weight of root (0.01 mg/l, 4 °C, 9 days): 2.9 g
- Area of leaf (0.01 mg/l, 4 °C, 12 days): 13.5 cm^2
- Height (0.01 mg/l, 4 °C, 12 days): 7.8 cm
- Number of leaf (0.01 mg/l, 4 °C, 12 days): 3
- Number of tiller (0.01 mg/l, 4 °C, 12 days): 2
- Weight of root (0.01 mg/l, 4 °C, 12 days): 3.0 g
- Area of leaf (0.01 mg/l, 5 °C, 3 days): 10.3 cm^2
- Height (0.01 mg/l, 5 °C, 3 days): 7.4 cm
- Weight of root (0.01 mg/l, 5 °C, 3 days): 2.8 g
- Area of leaf (0.01 mg/l, 5 °C, 6 days): 13.1 cm^2
- Height (0.01 mg/l, 5 °C, 6 days): 7.6 cm
- Weight of root (0.01 mg/l, 5 °C, 6 days): 3.0 g
- Area of leaf (0.01 mg/l, 5 °C, 9 days): 16.4 cm^2
- Height (0.01 mg/l, 5 °C, 9 days): 7.8 cm
- Weight of root (0.01 mg/l, 5 °C, 9 days): 3.4 g
- Area of leaf (0.01 mg/l, 5 °C, 12 days): 17 cm^2
- Height (0.01 mg/l, 5 °C, 12 days): 8.2 cm
- Number of leaf (0.01 mg/l, 5 °C, 12 days): 4
- Number of tiller (0.01 mg/l, 5 °C, 12 days): 3
- Weight of root (0.01 mg/l, 5 °C, 12 days): 3.9 g
- Area of leaf (0.1 mg/l, 1 °C, 3 days): 10.1 cm^2
- Height (0.1 mg/l, 1 °C, 3 days): 7.1 cm
- Weight of root (0.1 mg/l, 1 °C, 3 days): 2.8 g
- Area of leaf (0.1 mg/l, 1 °C, 6 days): 11 cm^2
- Height (0.1 mg/l, 1 °C, 6 days): 7.2 cm
- Weight of root (0.1 mg/l, 1 °C, 6 days): 2.9 g
- Area of leaf (0.1 mg/l, 1 °C, 9 days): 12.1 cm^2
- Height (0.1 mg/l, 1 °C, 9 days): 7.3 cm
- Weight of root (0.1 mg/l, 1 °C, 9 days): 3.4 g
- Area of leaf (0.1 mg/l, 1 °C, 12 days): 13.1 cm^2
- Height (0.1 mg/l, 1 °C, 12 days): 7.4 cm
- Number of leaf (0.1 mg/l, 1 °C, 12 days): 3
- Number of tiller (0.1 mg/l, 1 °C, 12 days): 3
- Weight of root (0.1 mg/l, 1 °C, 12 days): 3.6 g
- Area of leaf (0.1 mg/l, 2 °C, 3 days): 10.4 cm^2
- Height (0.1 mg/l, 2 °C, 3 days): 7.1 cm
- Weight of root (0.1 mg/l, 2 °C, 3 days): 2.8 g
- Area of leaf (0.1 mg/l, 2 °C, 6 days): 11.2 cm^2
- Height (0.1 mg/l, 2 °C, 6 days): 7.3 cm
- Weight of root (0.1 mg/l, 2 °C, 6 days): 3.0 g
- Area of leaf (0.1 mg/l, 2 °C, 9 days): 12.6 cm^2
- Height (0.1 mg/l, 2 °C, 9 days): 7.3 cm
- Weight of root (0.1 mg/l, 2 °C, 9 days): 3 g
- Area of leaf (0.1 mg/l, 2 °C, 12 days): 13.2 cm^2
- Height (0.1 mg/l, 2 °C, 12 days): 7.4 cm
- Number of leaf (0.1 mg/l, 2 °C, 12 days): 3
- Number of tiller (0.1 mg/l, 2 °C, 12 days): 3
- Weight of root (0.1 mg/l, 2 °C, 12 days): 3.2 g
- Area of leaf (0.1 mg/l, 3 °C, 3 days): 10.5 cm^2
- Height (0.1 mg/l, 3 °C, 3 days): 7.3 cm
- Weight of root (0.1 mg/l, 3 °C, 3 days): 2.5 g
- Area of leaf (0.1 mg/l, 3 °C, 6 days): 12 cm^2
- Height (0.1 mg/l, 3 °C, 6 days): 7.4 cm
- Weight of root (0.1 mg/l, 3 °C, 6 days): 2.7 g
- Area of leaf (0.1 mg/l, 3 °C, 9 days): 12.1 cm^2
- Height (0.1 mg/l, 3 °C, 9 days): 7.8 cm
- Weight of root (0.1 mg/l, 3 °C, 9 days): 2.7 g
- Area of leaf (0.1 mg/l, 3 °C, 12 days): 13.4 cm^2
- Height (0.1 mg/l, 3 °C, 12 days): 7.9 cm
- Number of leaf (0.1 mg/l, 3 °C, 12 days): 3
- Number of tiller (0.1 mg/l, 3 °C, 12 days): 2
- Weight of root (0.1 mg/l, 3 °C, 12 days): 2.9 g
- Area of leaf (0.1 mg/l, 4 °C, 3 days): 10.8 cm^2
- Height (0.1 mg/l, 4 °C, 3 days): 7.4 cm
- Weight of root (0.1 mg/l, 4 °C, 3 days): 2.5 g
- Area of leaf (0.1 mg/l, 4 °C, 6 days): 12 cm^2
- Height (0.1 mg/l, 4 °C, 6 days): 7.4 cm
- Weight of root (0.1 mg/l, 4 °C, 6 days): 2.7 g
- Area of leaf (0.1 mg/l, 4 °C, 9 days): 13.4 cm^2
- Height (0.1 mg/l, 4 °C, 9 days): 7.8 cm
- Weight of root (0.1 mg/l, 4 °C, 9 days): 2.9 g
- Area of leaf (0.1 mg/l, 4 °C, 12 days): 13.4 cm^2
- Height (0.1 mg/l, 4 °C, 12 days): 8.1 cm
- Number of leaf (0.1 mg/l, 4 °C, 12 days): 3
- Number of tiller (0.1 mg/l, 4 °C, 12 days): 2
- Weight of root (0.1 mg/l, 4 °C, 12 days): 3.1 g
- Area of leaf (0.1 mg/l, 5 °C, 3 days): 11 cm^2
- Height (0.1 mg/l, 5 °C, 3 days): 7.5 cm
- Weight of root (0.1 mg/l, 5 °C, 3 days): 2.9 g
- Area of leaf (0.1 mg/l, 5 °C, 6 days): 12.1 cm^2
- Height (0.1 mg/l, 5 °C, 6 days): 7.5 cm
- Weight of root (0.1 mg/l, 5 °C, 6 days): 3.2 g
- Area of leaf (0.1 mg/l, 5 °C, 9 days): 16.2 cm^2
- Height (0.1 mg/l, 5 °C, 9 days): 8 cm
- Weight of root (0.1 mg/l, 5 °C, 9 days): 3.5 g
- Area of leaf (0.1 mg/l, 5 °C, 12 days): 17.9 cm^2
- Height (0.1 mg/l, 5 °C, 12 days): 8.1 cm
- Number of leaf (0.1 mg/l, 5 °C, 12 days): 3
- Number of tiller (0.1 mg/l, 5 °C, 12 days): 2
- Weight of root (0.1 mg/l, 5 °C, 12 days): 4.1 g
- Area of leaf (1 mg/l, 1 °C, 3 days): 10 cm^2
- Height (1 mg/l, 1 °C, 3 days): 7.2 cm
- Weight of root (1 mg/l, 1 °C, 3 days): 2.6 g
- Area of leaf (1 mg/l, 1 °C, 6 days): 11 cm^2
- Height (1 mg/l, 1 °C, 6 days): 7.2 cm
- Weight of root (1 mg/l, 1 °C, 6 days): 3.1 g
- Area of leaf (1 mg/l, 1 °C, 9 days): 12.4 cm^2
- Height (1 mg/l, 1 °C, 9 days): 7.3 cm
- Weight of root (1 mg/l, 1 °C, 9 days): 3.1 g
- Area of leaf (1 mg/l, 1 °C, 12 days): 13 cm^2
- Height (1 mg/l, 1 °C, 12 days): 7.9 cm
- Number of leaf (1 mg/l, 1 °C, 12 days): 3
- Number of tiller (1 mg/l, 1 °C, 12 days): 3
- Weight of root (1 mg/l, 1 °C, 12 days): 3.7 g
- Area of leaf (1 mg/l, 2 °C, 3 days): 10.2 cm^2
- Height (1 mg/l, 2 °C, 3 days): 7.2 cm
- Weight of root (1 mg/l, 2 °C, 3 days): 2.6 g
- Area of leaf (1 mg/l, 2 °C, 6 days): 11.7 cm^2
- Height (1 mg/l, 2 °C, 6 days): 7.2 cm
- Weight of root (1 mg/l, 2 °C, 6 days): 3.0 g
- Area of leaf (1 mg/l, 2 °C, 9 days): 12 cm^2
- Height (1 mg/l, 2 °C, 9 days): 7.4 cm
- Weight of root (1 mg/l, 2 °C, 9 days): 3.2 g
- Area of leaf (1 mg/l, 2 °C, 12 days): 13 cm^2
- Height (1 mg/l, 2 °C, 12 days): 8 cm
- Number of leaf (1 mg/l, 2 °C, 12 days): 3
- Number of tiller (1 mg/l, 2 °C, 12 days): 3
- Weight of root (1 mg/l, 2 °C, 12 days): 3.7 g
- Area of leaf (1 mg/l, 3 °C, 3 days): 10.4 cm^2
- Height (1 mg/l, 3 °C, 3 days): 7.4 cm
- Weight of root (1 mg/l, 3 °C, 3 days): 2.5 g
- Area of leaf (1 mg/l, 3 °C, 6 days): 12 cm^2
- Height (1 mg/l, 3 °C, 6 days): 7.5 cm
- Weight of root (1 mg/l, 3 °C, 6 days): 2.6 g
- Area of leaf (1 mg/l, 3 °C, 9 days): 12 cm^2
- Height (1 mg/l, 3 °C, 9 days): 7.7 cm
- Weight of root (1 mg/l, 3 °C, 9 days): 2.7 g
- Area of leaf (1 mg/l, 3 °C, 12 days): 13.2 cm^2
- Height (1 mg/l, 3 °C, 12 days): 8.1 cm
- Number of leaf (1 mg/l, 3 °C, 12 days): 3
- Number of tiller (1 mg/l, 3 °C, 12 days): 2
- Weight of root (1 mg/l, 3 °C, 12 days): 2.9 g
- Area of leaf (1 mg/l, 4 °C, 3 days): 10.9 cm^2
- Height (1 mg/l, 4 °C, 3 days): 7.4 cm
- Weight of root (1 mg/l, 4 °C, 3 days): 2.5 g
- Area of leaf (1 mg/l, 4 °C, 6 days): 12 cm^2
- Height (1 mg/l, 4 °C, 6 days): 7.5 cm
- Weight of root (1 mg/l, 4 °C, 6 days): 2.7 g
- Area of leaf (1 mg/l, 4 °C, 9 days): 13.2 cm^2
- Height (1 mg/l, 4 °C, 9 days): 7.8 cm
- Weight of root (1 mg/l, 4 °C, 9 days): 3.0 g
- Area of leaf (1 mg/l, 4 °C, 12 days): 14 cm^2
- Height (1 mg/l, 4 °C, 12 days): 8.2 cm
- Number of leaf (1 mg/l, 4 °C, 12 days): 3
- Number of tiller (1 mg/l, 4 °C, 12 days): 2
- Weight of root (1 mg/l, 4 °C, 12 days): 3.2 g
- Area of leaf (1 mg/l, 5 °C, 3 days): 11.1 cm^2
- Height (1 mg/l, 5 °C, 3 days): 7.4 cm
- Weight of root (1 mg/l, 5 °C, 3 days): 2.9 g
- Area of leaf (1 mg/l, 5 °C, 6 days): 13.1 cm^2
- Height (1 mg/l, 5 °C, 6 days): 7.5 cm
- Weight of root (1 mg/l, 5 °C, 6 days): 3.5 g
- Area of leaf (1 mg/l, 5 °C, 9 days): 18 cm^2
- Height (1 mg/l, 5 °C, 9 days): 8.2 cm
- Weight of root (1 mg/l, 5 °C, 9 days): 3.7 g
- Area of leaf (1 mg/l, 5 °C, 12 days): 20 cm^2
- Height (1 mg/l, 5 °C, 12 days): 8.3 cm
- Number of leaf (1 mg/l, 5 °C, 12 days): 3
- Number of tiller (1 mg/l, 5 °C, 12 days): 2
- Weight of root (1 mg/l, 5 °C, 12 days): 4.5 g
